Results as given in patent publication US11136336B2, “Thienopyrimidones” (Boehringer Ingelheim International GmbH, priority 2019, dated 2021).

Assays:
[1] = Assay B: Microsomal clearance; assay type: in vitro ADME; conditions: pooled human liver microsomes, 1 mg/ml protein, 1 μM test compound, 37° C.
Experimental: Assay B: Microsomal Clearance:
The metabolic degradation of the test compound is assayed at 37° C. with pooled liver microsomes. The final incubation volume of 100 μl per time point contains TRIS buffer pH 7.6 at RT (0.1 M), magnesium chloride (5 mM), microsomal protein (1 mg/ml) and the test compound at a final concentration of 1 μM.
Following a short preincubation period at 37° C., the reactions are initiated by addition of beta-nicotinamide adenine dinucleotide phosphate, reduced form (NADPH, 1 mM) and terminated by transferring an aliquot into solvent after different time points (0, 5, 15, 30, 60 min). Additionally, the NADPH-independent degradation is monitored in incubations without NADPH, terminated at the last time point. The [%] remaining test compound after NADPH independent incubation is reflected by the parameter c(control) (metabolic stability). The quenched incubations are pelleted by centrifugation (10000 g, 5 min).
An aliquot of the supernatant is assayed by LC-MS/MS for the amount of parent compound. The half-life (t1/2 INVITRO) is determined by the slope of the semilogarithmic plot of the concentration-time profile.

[2] = target: human TRPA1 ion channel (Homo sapiens (Human), UniProt O75762); assay: Assay A: TRPA1 cell assay (FLIPR, AITC-induced intracellular calcium); assay type: cell-based; conditions: HEK293 cells over-expressing human TRPA1; agonist AITC 10 μM; FLIPRtetra; read-out: hTRPA1 IC50
Sequence of human TRPA1 ion channel (O75762 whole entry): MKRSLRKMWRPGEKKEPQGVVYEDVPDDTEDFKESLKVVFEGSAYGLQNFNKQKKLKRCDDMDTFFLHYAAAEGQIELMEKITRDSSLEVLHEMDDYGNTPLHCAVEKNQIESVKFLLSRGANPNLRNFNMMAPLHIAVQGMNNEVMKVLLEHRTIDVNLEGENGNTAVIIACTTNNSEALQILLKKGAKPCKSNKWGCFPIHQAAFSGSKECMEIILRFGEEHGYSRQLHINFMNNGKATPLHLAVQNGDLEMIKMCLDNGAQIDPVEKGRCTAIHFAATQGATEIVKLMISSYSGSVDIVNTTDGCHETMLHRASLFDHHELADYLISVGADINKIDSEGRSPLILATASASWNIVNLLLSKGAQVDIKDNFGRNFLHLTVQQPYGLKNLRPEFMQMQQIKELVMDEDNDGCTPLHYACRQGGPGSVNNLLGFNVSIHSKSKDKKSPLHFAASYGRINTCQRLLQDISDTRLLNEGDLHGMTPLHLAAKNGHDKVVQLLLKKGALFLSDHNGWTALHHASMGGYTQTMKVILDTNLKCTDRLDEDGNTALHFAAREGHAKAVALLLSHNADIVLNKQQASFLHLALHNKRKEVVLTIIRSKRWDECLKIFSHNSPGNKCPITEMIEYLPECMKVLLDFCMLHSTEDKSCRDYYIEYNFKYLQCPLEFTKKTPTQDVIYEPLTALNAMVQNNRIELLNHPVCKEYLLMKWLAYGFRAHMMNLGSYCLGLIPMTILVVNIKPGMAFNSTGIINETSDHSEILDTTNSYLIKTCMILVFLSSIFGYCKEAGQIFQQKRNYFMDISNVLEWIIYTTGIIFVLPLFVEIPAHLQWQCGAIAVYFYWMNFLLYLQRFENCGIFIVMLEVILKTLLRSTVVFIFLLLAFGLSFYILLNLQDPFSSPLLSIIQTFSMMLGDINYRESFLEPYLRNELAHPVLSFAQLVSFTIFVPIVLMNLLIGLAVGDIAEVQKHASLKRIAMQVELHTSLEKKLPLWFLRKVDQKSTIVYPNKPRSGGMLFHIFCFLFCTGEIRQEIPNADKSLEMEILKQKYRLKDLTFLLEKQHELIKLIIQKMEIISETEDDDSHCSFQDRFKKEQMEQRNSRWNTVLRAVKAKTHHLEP
Experimental: A human HEK293 cell line over-expressing the human TRPA1 ion channel (Perkin Elmer, Product No. AX-004-PCL) was used as a test system for compound efficacy and potency. Compound activity was determined by measuring the effect of compounds on intracellular calcium concentration induced by AITC (Allylisothiocyanat) agonism in a FLIPRtetra system (Molecular Devices).
The cells were obtained as frozen cells in cryo-vials and stored until use at −150° C. Cells were grown in culture medium (MEM/EBSS medium with 10% FCS and 0.4 mg/ML Geneticin). […] For sub-culturing cells were detached from flasks by Versene. At the day before the assay, cells were detached, washed twice with medium (MEM/EBSS medium with 10% FCS) and 20000 cells in 20p/well were seeded to Poly D-Lysin biocoated 384-well plates (black, clear bottom, Cat. 356697) from Corning. Plates were incubated for 24 hours at 37° C./5% CO2 before use in the assay.
The test compounds were dissolved in 100% DMSO at a concentration of 10 mM and in a first step diluted in DMSO to a concentration of 5 mM, followed by serial dilution steps in 100% DMSO. Dilution factor and number of dilution steps may vary according to needs. Typically 8 different concentrations by 1:5 dilutions were prepared, further intermediate dilutions (1:20) of the substances were carried out with HBSS/HEPES buffer (1×HEPES, Cat.14065 from Gibco, 20 mM HEPES, Cat. 83264 from SIGMA, 0.1% BSA Cat.11926 from Invitrogen, pH 7,4
At the assay day cells were washed 3× with assay puffer, 20 μL buffer remained in the wells after washing. 10 μL Ca6 kit (Cat.R8191 MolecularDevices) loading buffer in HBSS/HEPES was added to the cells and the plates were incubated with lid for 120 minutes at 37°/5% CO2. 10 μL of compound or controls in HBSS/HEPES buffer/5% DMSO from the intermediate dilution plate were carefully added to the wells. […] Finally 10 μL of the agonist AITC 50 μM dissolved in HBSS/HEPES buffer/0.05% DMSO (final concentration 10 μM) was added to the wells followed by an additional read on the FLIPRtetra device for 10 minutes. The area under the signal curve (AUC) after AITC addition was used for IC50/% inhibition calculations
Each assay microtiter plate contained wells with vehicle (1% DMSO) controls instead of compound as controls for AITC induced luminescence (100% CTL; high controls) and wells with vehicle controls without AITC as controls for non-specific changes in luminescence (0% CTL; low controls).
The analysis of the data was performed by the calculation of the area under signal curve of the individual wells. Based on this values the % value for the measurement of each substance concentration was calculated (AUC(sample)−AUC(low))*100/(AUC(high)−AUC(low)) using MegaLab software (in house development). The IC50 values were calculated from the % control values using MegaLab software. Calculation: [y=(ad)/(1+(x/c)^b)+d], a=low value, d=high value; x=conc M; c=IC50 M; b=hill; y=% ctrl

[3] = Assay C: Hepatocyte clearance; assay type: in vitro ADME; conditions: human hepatocyte suspension, 1 μM test compound, six hours
Experimental: Assay C: Hepatocyte Clearance
The metabolic degradation of the test compound is assayed in a hepatocyte suspension. Hepatocytes (cryopreserved) are incubated in. Dulbecco's modified eagle medium (supplemented with 3.5 μg glucagon/500 mL, 2.5 mg insulin/500 mL and 3.75 mg/500 mL hydrocortison) containing 5% or 50% species serum.
Following a 30 min preincubation in an incubator (37° C., 10% CO2) 5 μl of test compound solution (80 μM; from 2 mM in DMSO stock solution diluted 1:25 with medium) are added into 395 μl hepatocyte suspension (cell density in the range 0.25-5 Mio cells/mL depending on the species, typically 1 Mio cells/mL; final concentration of test compound 1 μM, final DMSO concentration 0.05%).
The cells are incubated for six hours (incubator, orbital shaker) and samples (25 μl) are taken at 0, 0.5, 1, 2, 4 and 6 hours. Samples are transferred into acetonitrile and pelleted by centrifugation (5 min). The supernatant is transferred to a new 96-deepwell plate, evaporated under nitrogen and resuspended.
Decline of parent compound is analyzed by HPLC-MS/MS
CLint is calculated as follows CL_[…]=Dose/AUC=(C0/CD)/(AUD+clast/k)×1000/60. C0: initial concentration in the incubation [μM], CD: cell density of vital cells [10e6cells/mL], AUD: area under the data [μM×h], clast: concentration of last data point [μM], k: slope of the regression line for parent decline [h−1].
The calculated in vitro hepatic intrinsic clearance can be scaled up to the intrinsic in vivo hepatic Clearance and used to predict hepatic in vivo blood clearance (CL) by the use of a liver model (well stirred model).

Row | SMILES | human LM [% Qh] [1] [% Qh] | IC50 [2] [nM] | human Hepatocytes [% Qh] [3] [% Qh]
1 | O=C1NCCc2c1sc1ncn(Cc3nc(C[C@H](O)c4ccc(Cl)cc4)no3)c(=O)c21 [Example 15] | <23 | 9 | 31
2 | CNC(=O)c1sc2ncn(Cc3nc(C[C@H](O)c4ccc(F)cc4)no3)c(=O)c2c1C [Example 10] | <23 |  | 25
3 | Cc1c(C(N)=O)sc2ncn(Cc3nc(C[C@H](O)c4ccc(Cl)cc4)no3)c(=O)c12 [Example 1, 3-({3-[(2S)-2-(4-chlorophenyl)-2-hydroxyethyl]-1,2,4-oxadiazol-5-yl}methyl)-5-methyl-4-oxo-3H,4H-thieno[2,3-d]pyrimidine-6-carboxamide] | 29 | 13 | 25
4 | Cc1c(C(N)=O)sc2ncn(Cc3nc(C[C@H](O)c4ccc5c(c4)OCO5)no3)c(=O)c12 [Example 8] | <23 | 56 | 24
5 | CNC(=O)c1sc2ncn(Cc3nc(C[C@H](O)c4ccc(F)c(F)c4)no3)c(=O)c2c1C [Example 14] | <23 | 33 | 24
6 | Cc1c(C(=O)NCC(F)F)sc2ncn(Cc3nc(C[C@H](O)c4ccc(Cl)cc4)no3)c(=O)c12 [Example 12] | 24 | 15 | 36
7 | Cc1c(C(=O)NCC(C)(C)O)sc2ncn(Cc3nc(C[C@H](O)c4ccc(Cl)cc4)no3)c(=O)c12 [Example 13] | <23 | 37 | 18
8 | Cc1c(C(N)=O)sc2ncn(Cc3nc(C[C@H](O)c4ccc5c(c4)OC(F)(F)O5)no3)c(=O)c12 [Example 7] | 23 | 34 | 39
9 | Cc1c(C(N)=O)sc2ncn(Cc3nc(C[C@H](O)c4ccc(F)c(F)c4)no3)c(=O)c12 [Example 5] | <23 | 48 | 37
10 | Cc1c(C(N)=O)sc2ncn(Cc3nc(C[C@H](O)c4cc5ccccc5o4)no3)c(=O)c12 [Example 3] | <23 | 19 | 36
11 | Cc1ccc([C@@H](O)Cc2noc(Cn3cnc4sc(C(N)=O)c(C)c4c3=O)n2)cc1 [Example 2] | <23 | 20 | 29
12 | Cc1c(C(N)=O)sc2ncn(Cc3nc(C[C@H](O)c4ccc(F)cc4)no3)c(=O)c12 [Example 4] | <23 | 33 | 29
13 | CNC(=O)c1sc2ncn(Cc3nc(C[C@H](O)c4ccc5c(c4)OCO5)no3)c(=O)c2c1C [Example 9] | 29 | 78 | 24
14 | CNC(=O)c1sc2ncn(Cc3nc(C[C@H](O)c4ccc(Cl)cc4)no3)c(=O)c2c1C [Example 11] | <23 | 10 | 29
15 | NC(=O)c1sc2ncn(Cc3nc(C[C@H](O)c4ccc(Cl)cc4)no3)c(=O)c2c1Cl [Example 16] | <23 | 16 | 39
16 | Cc1c(C(N)=O)sc2ncn(Cc3nc(C[C@H](O)c4cc(F)cc(F)c4)no3)c(=O)c12 [Example 6] | <23 | 48 | 23
